Read-outs that look alike come from different tables or passages of the source.
What was measured:
[1] = test system: mouse propionibactrium acnes (P. acnes)-lipopolysaccharide (LPS)-induced fulminant hepatitis model; experiment: mouse P. acnes-lipopolysaccharide (LPS)-induced fulminant hepatitis model; format: in vivo, male Balb/c mice; conditions: for responders at 100 mg/kg: Cutibacterium acnes, po, 24 h, read-out: Survival rate (%), test compd. group
Procedure: One mg/mouse of heat-killed P. acnes was intravenously injected into a five-week-old male Balb/c mice and LPS was additionally intravenously injected at a dose of 1 microgram/mouse 7 days after the injection of P.acnes to induce fulminant hepatitis. Each test compound was suspended in a 0.5% methylcellulose solution and orally administered at a dose of 100 mg/kg 30 min before the intravenous injection of LPS.
Survival rates and GPT activity in plasma of the survivors were determined in 24 hours after the intravenous injection of LPS. The mice treated with each test compound against the lethality and hepatic injury induced with P. acnes-LPS are shown in Table 2.

[2] = test system: rat D-galactosamine (GalN)-induced acute hepatitis model; experiment: rat D-galactosamine (GalN)-induced acute hepatitis model; format: in vivo, Fischer (F 344) male rat; conditions: 300 mg/kg GalN s.c., compound 100 mg/kg oral 1 hr after GalN, blood 48 hr after GalN
Procedure: 300 mg/kg of GalN was subcutaneously injected into a Fischer (F 344) male rat(s) (around 180 g) to induce acute hepatitis. Each test compound was suspended in a 0.5% aqueous methylcellulose solution and orally administered at a dose of 100 mg/kg one hr after the injection of GalN.
Blood was sampled from the tail of the rat 48 hr after the injection of GalN. The blood clotting time was measured by Hepaplastin test (HPT), and at the same time GPT activity in the plasma was measured enzymatically.

[3] = Toxicity test, one week oral administration; format: in vivo; design: dose or concentration left out as unconfirmed; conditions: seven-week male SD rat
[4] = read-out: Percentage inhibition (%) GPT (plasma GPT activity)
[5] = read-out: Percentage inhibition (%) HPT (blood clotting time, Hepaplastin test)
[6] = plasma GPT of survivors 24 hours after LPS, 100 mg/kg oral, value is test group

SMILES	responders at 100 mg/kg [1]	inhibition in vivo at 100 mg/kg [2, 4]	inhibition in vivo at 100 mg/kg [2, 5]	GPT (survival rate), test compd. group (%) [part 1] [1, 6]	death [3]	GPT (Ku/ml), test compd. group [part 2] [1, 6]
CCOC1=C(OC)C(=O)C(C)=C(/C=C(\CCC(C)C)C(=O)O)C1=O [compound 135]	50%	52%	51%			
CCCCCCCCC/C(=C\C1=C(C)C(=O)C(OC)=C(OC)C1=O)C(=O)O [Example 4, (E)-3-[5-(2,3-Dimethoxy-6-methyl-1,4-benzoquinoyl)]-2-nonyl-2-propenoic acid]	64%	91%	87%	358 ± 40%	no compound was found to cause death	
COC1=C(/C=C(\CC2CCCCC2)C(=O)O)C(=O)C(OC)=C(OC)C1=O [compound 149]	67%	93%	95%	209 ± 66%		
CCCCCCCCC/C(=C\c1c(C)c(O)c(OC)c(OC)c1O)C(=O)O [compound 127]		60%	71%			
COC1=C(OC)C(=O)C(/C=C(\CCCCC#N)C(=O)O)=C(C)C1=O [compound 176]	80%	96%	97%			297 ± 50 Ku/ml
CCOc1c(O)c(C)c(/C=C(\Cc2ccccc2)C(=O)O)c(OCC)c1OCC [compound 79]	50%	94%	89%	1009 ± 196%		
COC1=C(/C=C(\CCC(C)C)C(=O)O)C(=O)C(OC)=C(OC)C1=O [compound 137]	30%	77%	73%		no compound was found to cause death	
COc1c(O)c(C)c(/C=C(\C(=O)O)c2ccccc2)c(OC)c1OC [Example 14, (Z)-3-[5-(1-Hydroxy-6-methyl-2,3,4-trimethoxy)phenyl]-2-phenyl-2-propenoic acid]	100%	78%	76%	297 ± 50%		
COC1=C(OC)C(=O)C(/C=C(\CC2CCCCC2)C(=O)O)=C(C)C1=O [compound 141]	25%	100%	98%			
COC1=C(OC)C(=O)C(/C=C(\CCCSC)C(=O)O)=C(C)C1=O [compound 183]	22%	86%	80%			
CCCCC/C(=C\c1c(C)c(O)c(OCC)c(OCC)c1OCC)C(=O)O [compound 20]	70%	68%	68%	293 ± 65%		
COC1=C(OC)C(=O)C(/C=C(\Cc2cccs2)C(=O)O)=C(C)C1=O [compound 217]	80%	97%	99%			
CCOC1=C(OC)C(=O)C(C)=C(/C=C(\CC2CCCCC2)C(=O)O)C1=O [compound 142]	100%	76%	67%	381 ± 19%	no compound was found to cause death	
CCOC1=C(OCC)C(=O)C(/C=C(\CC2CCCCC2)C(=O)O)=C(C)C1=O [compound 144]	100%	78%	79%	280 ± 31%		
